Entries after “also recorded” stand apart in the source; their conditions may differ.

One test deals with T1, α-D-glucosidase (Yeast) (Saccharomyces cerevisiae, UniProt P53341).
T1 construct: purchased Sigma
The experiment in a line: Glycosidase assay, α-D-glucosidase (Yeast). The conditions noted are these: 0.2 mM, negative value = stabilisation or promotion of enzyme activity. In kind it is biochemical.

Test [1] has as its system α-D-glucosidase (Bacillus). Kind of test: Glycosidase assay, α-D-glucosidase (Bacillus). The conditions noted are these: 0.2 mM. The test is classed as biochemical.
Method: (§1) All enzymes and para-nitrophenyl substrates were purchased from Sigma, with the exception of beta-mannosidase which came from Megazyme. Enzymes were assayed at 27° C. in 0.1 M citric acid/0.2M disodium hydrogen phosphate buffers at the optimum pH for the enzyme. The incubation mixture consisted of 10 μl enzyme solution, 10 μl of 1 mg/ml aqueous solution of sample and 50 μl of the appropriate 5 mM para-nitrophenyl substrate made up in buffer at the optimum pH for the enzyme. […] Final absorbances were read at 405 nm using a Versamax microplate reader (Molecular Devices). Assays were carried out in triplicate, and the values given are means of the three replicates per assay.
The target in a further test is T2, α-D-glucosidase (Rice) (Oryza sativa subsp. japonica, UniProt Q653V7).
T2 construct: purchased Sigma
The experiment in a line: Glycosidase assay, α-D-glucosidase (Rice). In kind it is biochemical. The conditions noted are these: 0.2 mM.

A further test relates to β-D-glucosidase. The experiment in a line: Glycosidase assay, β-D-glucosidase. The conditions noted are these: 0.2 mM. The test is classed as biochemical.
The next test has as its system α-D-galactosidase. The experiment in a line: Glycosidase assay, α-D-galactosidase. In kind it is biochemical. The conditions noted are these: 0.2 mM; negative value = stabilisation or promotion.
Another test deals with β-D-galactosidase. Kind of test: Glycosidase assay, β-D-galactosidase. The test is classed as biochemical. The conditions noted are these: 0.2 mM.
Another test deals with α-L-fucosidase. The experiment in a line: Glycosidase assay, α-L-fucosidase. The test is classed as biochemical. The conditions noted are these: 0.2 mM.
The subject of the next test is α-D-mannosidase. The experiment in a line: Glycosidase assay, α-D-mannosidase. In kind it is biochemical. The conditions noted are these: 0.2 mM; for percentage inhibition, α-D-mannosidase: negative value = stabilisation or promotion.
The subject of a further test is β-D-mannosidase. Kind of test: Glycosidase assay, β-D-mannosidase. In kind it is biochemical. The conditions noted are these: 0.2 mM; negative value = stabilisation or promotion.
The subject of the next test is Naringinase. The experiment in a line: Glycosidase assay, Naringinase. In kind it is biochemical. The conditions noted are these: 0.2 mM.
Test [2] concerns N-acetyl-β-D-gluc (Bovine kidney). Kind of test: Glycosidase assay, N-acetyl-β-D-gluc (Bovine kidney). The conditions noted are these: 0.2 mM; negative value = stabilisation or promotion. The test is classed as biochemical.
Method: as §1
Test [3] has as its system N-acetyl-β-D-gluc (Jack bean). Kind of test: Glycosidase assay, N-acetyl-β-D-gluc (Jack bean). The test is classed as biochemical. The conditions noted are these: 0.2 mM; negative value = stabilisation or promotion.
Method: as §1
The test system of test [4] is N-acetyl-β-D-hexosaminidase. Kind of test: Glycosidase assay, N-acetyl-β-D-hexosaminidase. The test is classed as biochemical. The conditions noted are these: 0.2 mM; negative value = stabilisation or promotion.
Method: (§2) Enzymes were assayed at 27° C. in 0.1 M citric acid/0.2M disodium hydrogen phosphate buffers at the optimum pH for the enzyme. The incubation mixture consisted of 10 μl enzyme solution, 10 μl of 1 mg/ml aqueous solution of sample and 50 μl of the appropriate 5 mM para-nitrophenyl substrate made up in buffer at the optimum pH for the enzyme. […] Final absorbances were read at 405 nm using a Versamax microplate reader (Molecular Devices). Assays were carried out in triplicate, and the values given are means of the three replicates per assay.
The target in the next test is T3, Amyloglucosidase (Aspergillus niger, UniProt P69328).
T3 construct: purchased Sigma
The experiment in a line: Glycosidase assay, Amyloglucosidase. The test is classed as biochemical. The conditions noted are these: 0.2 mM.

The next test relates to glucosidases. Kind of test: Glycosidase panel, summary in words for glucosidases. In kind it is biochemical. The conditions noted are these: 0.2 mM.
In test [5] the test system is equine endometrial explant, Prostaglandin F2α (PGF2α) secretion. Kind of test: In vitro equine endometrial explant culture, LPS-stimulated PGF2α secretion. The test is classed as cell-based, horse. The method, then: The efficacy of ido-BR1 as an anti-inflammatory agent in a model of mucosal inflammation was tested. The model utilised was previously optimised and established (D M Nash, E A. Lane, S Herath and I M Sheldon (2008) Endometrial Explant Culture for Characterizing Equine Endometritis. American Journal of Reproductive Immunology. 59: 105-117). The model is comprised of an in vitro equine endometrial explant tissue culture system. […]
Uterine tissue was collected from mares at an abattoir, the endometrial (mucosal) surface was dissected out, […] placed in culture as explants. […] The secretion of PGF2α is measured at 24 and 72 h after challenge with LPS in order to represent the innate and chronic immune response respectively.
Explants were treated with control (media alone) or, in order to determine whether ido-BR1 affected spontaneous PGF2α, 0.5, 25 or 100 μg/ml ido-BR1 alone. […] The secretion of PGF2α was measured at 24 and 72 h after treatments were applied. […]

Another test deals with β-glucuronidase. The conditions noted are these: 0.2 mM.

T1 sequence (P53341 whole entry): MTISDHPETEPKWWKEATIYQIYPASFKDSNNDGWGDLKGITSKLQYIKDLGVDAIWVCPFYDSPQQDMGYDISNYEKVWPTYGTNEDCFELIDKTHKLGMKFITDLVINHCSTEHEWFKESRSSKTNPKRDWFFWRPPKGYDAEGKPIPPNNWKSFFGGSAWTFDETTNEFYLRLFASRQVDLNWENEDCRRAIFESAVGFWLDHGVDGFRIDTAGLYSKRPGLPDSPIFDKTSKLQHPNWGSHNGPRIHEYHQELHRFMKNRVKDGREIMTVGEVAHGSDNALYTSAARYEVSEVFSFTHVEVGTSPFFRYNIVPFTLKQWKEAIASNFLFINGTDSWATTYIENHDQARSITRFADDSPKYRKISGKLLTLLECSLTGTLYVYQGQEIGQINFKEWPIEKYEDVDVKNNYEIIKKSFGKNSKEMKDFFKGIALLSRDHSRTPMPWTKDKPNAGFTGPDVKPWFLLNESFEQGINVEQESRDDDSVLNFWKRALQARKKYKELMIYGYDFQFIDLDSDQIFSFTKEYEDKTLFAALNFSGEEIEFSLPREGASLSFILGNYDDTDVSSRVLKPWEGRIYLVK
T2 sequence (Q653V7 34-885): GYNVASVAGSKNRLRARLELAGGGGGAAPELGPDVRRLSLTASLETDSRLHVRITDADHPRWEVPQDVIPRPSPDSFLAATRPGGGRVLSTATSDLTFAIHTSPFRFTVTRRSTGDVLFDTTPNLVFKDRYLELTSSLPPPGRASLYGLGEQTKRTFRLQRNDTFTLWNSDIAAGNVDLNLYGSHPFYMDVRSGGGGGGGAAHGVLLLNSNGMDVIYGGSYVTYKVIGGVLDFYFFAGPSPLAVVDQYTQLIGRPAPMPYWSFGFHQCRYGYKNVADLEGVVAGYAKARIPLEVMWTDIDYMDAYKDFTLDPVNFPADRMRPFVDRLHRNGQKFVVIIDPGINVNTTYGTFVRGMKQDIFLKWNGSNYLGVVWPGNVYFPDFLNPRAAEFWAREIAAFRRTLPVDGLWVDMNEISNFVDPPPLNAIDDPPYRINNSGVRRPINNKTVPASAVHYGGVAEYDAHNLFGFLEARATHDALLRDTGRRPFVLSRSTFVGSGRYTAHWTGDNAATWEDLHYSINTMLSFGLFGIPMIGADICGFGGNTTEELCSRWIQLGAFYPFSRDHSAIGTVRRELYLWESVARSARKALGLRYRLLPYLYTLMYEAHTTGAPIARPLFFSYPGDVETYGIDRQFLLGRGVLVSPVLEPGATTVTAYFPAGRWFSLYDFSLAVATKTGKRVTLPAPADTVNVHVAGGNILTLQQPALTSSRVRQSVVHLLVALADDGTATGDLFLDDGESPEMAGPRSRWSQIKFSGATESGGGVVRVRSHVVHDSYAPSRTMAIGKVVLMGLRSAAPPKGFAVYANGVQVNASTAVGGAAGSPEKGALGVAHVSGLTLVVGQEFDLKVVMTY
T3 sequence (P69328 25-640): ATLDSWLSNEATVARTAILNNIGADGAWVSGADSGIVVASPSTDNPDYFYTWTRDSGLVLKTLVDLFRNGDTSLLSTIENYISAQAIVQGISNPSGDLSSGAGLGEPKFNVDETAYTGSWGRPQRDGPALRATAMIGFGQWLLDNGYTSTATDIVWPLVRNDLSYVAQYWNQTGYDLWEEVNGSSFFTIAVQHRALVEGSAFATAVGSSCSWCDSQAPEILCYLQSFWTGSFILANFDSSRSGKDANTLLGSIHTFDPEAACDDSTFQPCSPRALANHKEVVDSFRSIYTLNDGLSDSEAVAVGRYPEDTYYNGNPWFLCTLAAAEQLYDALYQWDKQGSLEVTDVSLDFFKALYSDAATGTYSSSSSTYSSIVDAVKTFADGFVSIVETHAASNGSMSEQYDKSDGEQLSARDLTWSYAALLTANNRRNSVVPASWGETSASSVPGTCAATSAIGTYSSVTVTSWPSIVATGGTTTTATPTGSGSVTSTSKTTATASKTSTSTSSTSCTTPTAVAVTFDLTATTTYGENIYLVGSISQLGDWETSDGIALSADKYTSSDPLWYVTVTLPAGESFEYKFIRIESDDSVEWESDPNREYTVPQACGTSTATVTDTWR
Method for Amyloglucosidase: as §2
Method for Naringinase: as §2
Method for glucosidases: as §1
Method for α-D-galactosidase: as §1
Method for α-D-glucosidase (Rice): as §2
Method for α-D-glucosidase (Yeast): as §1
Method for α-D-mannosidase: as §1
Method for α-L-fucosidase: as §1
Method for β-D-galactosidase: as §1
Method for β-D-glucosidase: as §1
Method for β-D-mannosidase: as §2
Method for β-glucuronidase: as §1

In the case of `OC[C@H]1NC[C@H](O)[C@@H](O)[C@@H]1O` [DNJ, reference compound], the “percentage inhibition, α-D-glucosidase (Yeast)” value at α-D-glucosidase (Yeast) was found to be 35.7%. In test [1], the “percentage inhibition, α-D-glucosidase (Bacillus)” value worked out at 99.5%. The “percentage inhibition, α-D-glucosidase (Rice)” value at α-D-glucosidase (Rice) is 99.6%. For the same compound, the “percentage inhibition, β-D-glucosidase” value in the test on β-D-glucosidase worked out at 63.7%. The “percentage inhibition, α-D-galactosidase” value in the test on α-D-galactosidase is listed as −3.3%. In addition, in the test on β-D-galactosidase, the “percentage inhibition, β-D-galactosidase” value is 0.4%. Besides, the “percentage inhibition, α-L-fucosidase” value in the test with α-L-fucosidase came to 5.9%. In the test with α-D-mannosidase, the “percentage inhibition, α-D-mannosidase” value is listed as 26.6%. Moreover, the “percentage inhibition, β-D-mannosidase” value with β-D-mannosidase is recorded as −19.0%. In the test on Naringinase, the “percentage inhibition, Naringinase” value was 20.8%. The “percentage inhibition, N-acetyl-β-D-gluc (Bovine kidney)” value in test [2] is listed as −0.8%. In addition, in test [3], the “percentage inhibition, N-acetyl-β-D-gluc (Jack bean)” value is recorded as 2.8%. Besides, the “percentage inhibition, N-acetyl-β-D-hexosaminidase” value in test [4] is −5.5%. Also, the “percentage inhibition, Amyloglucosidase” value on Amyloglucosidase was determined as 31.7%. Besides, in the test on glucosidases, the “inhibition of glucosidases (in words)” value is “potent inhibition”.

With `O=C(O)[C@@H]1NC[C@H](O)[C@@H](O)[C@@H]1O` [ido-BR1, (2R,3R,4R,5S)-3,4,5-trihydroxypiperidine-2-carboxylic acid], at α-D-glucosidase (Yeast) (read-out: percentage inhibition, α-D-glucosidase (Yeast)), the inhibition at 200 µM was found to be 4.7%. For the same compound, in test [1], the “percentage inhibition, α-D-glucosidase (Bacillus)” value is 26.4%. The “percentage inhibition, β-D-glucosidase” value in the test on β-D-glucosidase came out at 6.1%. The “percentage inhibition, α-D-galactosidase” value with α-D-galactosidase is −2.7%. The “percentage inhibition, β-D-galactosidase” value in the test with β-D-galactosidase was 1.0%. Also, in the test on α-D-mannosidase, the “effect on alpha-mannosidase activity (in words)” value is “promote alpha-mannosidase activity slightly” and the “percentage inhibition, α-D-mannosidase” value is −28.4%. Also, the “percentage inhibition, β-D-mannosidase” value with β-D-mannosidase is recorded as −4.4%. For the same compound, in test [2], the “percentage inhibition, N-acetyl-β-D-gluc (Bovine kidney)” value is 5.5%. Besides, the “percentage inhibition, N-acetyl-β-D-gluc (Jack bean)” value in [3] was −4.5%. The “inhibition of glucosidases (in words)” value with glucosidases was “very weakly inhibitory”. In test [5] (3.0 μg/ml LPS with 0.5, 25 or 100 μg/ml ido-BR1, 24 h), the “PGF2α secretion by LPS-challenged explants versus control (abrogation of inflammation)” value is “not significantly different to the control; also recorded: abrogated inflammation in the explants”. The “abrogation of LPS-stimulated PGF2α secretion” value in test [5] (3.0 μg/ml LPS with ido-BR1, 72 h) is on record as “not significant”. In the test on β-glucuronidase, the “inhibition of glucuronidase (in words)” value is “not inhibitory” and the “percentage inhibition, β-glucuronidase” value came out at 2.5%.

Usually inhibition stands for the change of the read-out against control, counted positive when it falls.

(Values after patent US9717718B2, “Anti-inflammatory compounds” (Phytoquest Limited, priority 2011, dated 2017).)
